Results on two compounds are retold here after patent US7928085B2, “P-toluene sulfonic acid salt of 5-amino-3-(2′-O-acetyl-3′-deoxy-β-D-ribofuranosyl)-3H-thiazole[4,5-d]pyrimidine-2-one and methods for preparation” (Anadys Pharmaceuticals, Inc., priority 2006, dated 2011).

A short description of this data set: hygroscopicity of the solid form. As to conditions: solid substance, amorphous free base versus crystalline p-toluene sulfonic acid salt. Format: physicochemical.

Structures can show the parent of a compound that is named as a salt.

Take `CC(=O)O[C@@H]1C[C@@H](CO)O[C@H]1n1c(=O)sc2cnc(N)nc21` [Formula 5, 5-amino-3-(2′-O-acetyl-3′-deoxy-beta-D-ribofuranosyl)-3H-thiazolo[4,5-d]pyrimidin-2-one]: the hygroscopicity entry is recorded as “hydroscopic”.
In the case of `CC(=O)O[C@@H]1C[C@@H](CO)O[C@H]1n1c(=O)sc2cnc(N)nc21` [Formula (1), p-toluene sulfonic acid salt of 5-amino-3-(2′-O-acetyl-3′-deoxy-beta-D-ribofuranosyl)-3H-thiazolo[4,5-d]pyrimidin-2-one], for the setting “listed as p-toluene sulfonic salt”, the hygroscopicity result is listed as “only slightly hygroscopic”.
